Reference: the OPERA property sets (Mansouri et al. 2018)

Compound | logP
Cc1c(NC(=O)C(C)N(C)C)c(=O)n(-c2ccccc2)n1C (stereo not drawn) | -0.05
ClC(Cl)=C(Cl)Cl | 3.4
O=[N+]([O-])c1ccc(C=NO)cc1 | 1.95
CC(=O)C1CCC2C3CCC4=CC(=O)CCC4(C)C3C(O)CC12C (stereo not drawn) | 2.36
CC(=O)c1ccccc1N | 1.63
OCC(O)CO | -1.76
CC(=O)c1ccc(C(C)C)cc1 | 2.98
CCC(=O)OC1(C(=O)CBr)C(C)CC2C3CCC4=CC(=O)C=CC4(C)C3(F)C(=O)CC21C (stereo not drawn) | 3.55
CC(C)c1ccc([N+](=O)[O-])cc1 | 3.45
NC(=O)c1cc(N2CC2)c([N+](=O)[O-])cc1[N+](=O)[O-] | -0.02
ClCC(Cl)Cl | 1.89
Cc1ccc(C(=O)O)c(O)c1 | 2.99
Cc1noc(NS(=O)(=O)c2ccc(N)cc2)c1C | 1.01
COc1cc(C(C)(C)C)c(OC)cc1CC(C)N (stereo not drawn) | 3.91
O=[N+]([O-])c1ccccc1CO | 1.24
CC(=O)C(F)(F)F | 0.2
Nc1cccc(OC(=O)c2ccc(N)cc2O)c1 | 2.08
N=C(N)NCCCCc1ccccc1 | 1.59
COc1cc(S(C)=O)ccc1-c1nc2cnncc2[nH]1 (stereo not drawn) | 0.39
Cc1cccc(OCC(=O)NNC(C)C)c1 | 1.77
N#CCCN(CCC#N)N=O | 0.08
CCC#N | 0.16
N#Cc1ccc(C#N)cc1 | 0.93
NNC(=O)c1cccc(Cl)c1 | 1.18

Compound | logP
CN(C)N=Nc1cccc(Cl)c1 | 3.44
CC(C(=O)O)(c1ccccc1)c1ccccc1 | 2.69
CC#CC#CC | 2.24
CCC1(C2=CCCCC2)C(=O)NC(=O)NC1=O | 1.77
O=C(O)c1ccc(O)c(O)c1O | 1.05
O=C(O)C1COc2ccccc2O1 (stereo not drawn) | 1.4
CN1CCN(CCCN2c3ccccc3Sc3ccc(C(F)(F)F)cc32)CC1 | 5.03
CC1=Nc2ccc(Cl)cc2S(=O)(=O)N1 | 1.2
CN(C)c1ccc2c(c1)C(=O)N(O)C2=O | 1.27
NS(=O)(=O)c1ccc([N+](=O)[O-])cc1 | 0.64
CCCCNCc1cccnc1 | 1.34
CC(C)CC(N)Cc1ccccc1 (stereo not drawn) | 3.29
C=CCCC(C)=O | 1.02
Cc1ccc(/N=C/N(C)/C=N/c2ccc(C)cc2C)c(C)c1 | 5.5
OCC1CC1c1ccccc1 (stereo not drawn) | 1.95
CCC12CC3CC(CC(N)(C3)C1)C2 | 3.4
CNC(=O)Oc1ccc2c(c1)[C@]1(C)CCN(C)[C@@H]1N2C | 1.58
O=C(O)c1ccc(Cl)cc1[N+](=O)[O-] | 2.08
C[C@]1(O)CC[C@H]2[C@@H]3CCC4=CC(=O)CC[C@@H]4[C@H]3CC[C@@]21C | 2.99
CCCOc1c(OC)cc(CCN)cc1OC | 1.7
O=C(O)COc1ccc([N+](=O)[O-])cc1 | 1.48
CCCNC(=O)c1[nH]nc(C)c1[N+](=O)[O-] | 0.65
c1ccc2cnncc2c1 | 0.57
CCCCOc1cc(C(=O)NCCN(CC)CC)c2ccccc2n1 | 4.4

Compound | logP
CCOC(=O)C(=Cc1ccc(Cl)c(Cl)c1)C(C)=O | 3.92
O=C(O)c1c(F)cccc1Cl | 2.11
CC(C)(C)NC(=O)[C@H]1CC[C@H]2[C@@H]3CC[C@H]4NC(=O)C=C[C@]4(C)[C@H]3CC[C@]12C | 3.03
CC(C)OC(=O)c1cc(O)c(O)c(O)c1 | 1.54
CC(C)NNC(=O)COc1ccccc1Cl | 1.82
N#CC#N | 0.07
Clc1cccc2cccnc12 | 2.44
COC(=O)CCCO | -0.06
O=C(O)c1ccccc1Cl | 2.05
CCCCCOc1cccc(O)c1 | 3.63
Oc1ccccc1O | 0.88
CNCCOc1cc(C)c(O)cc1C(C)C | 2.35
O=c1[nH]cnc2nc[nH]c12 | -1.11
C[C@@H]1C[C@H]2[C@@H]3CCC4=CC(=O)C=C[C@]4(C)[C@@]3(F)[C@@H](O)C[C@]2(C)[C@H]1C(=O)CO | 2.35
NCCN1CCCC1 | 0.08
FC(F)(F)c1nc2cc(Cl)c(Cl)cc2[nH]1 | 3.49
CON(C)C(=O)Nc1ccc(C(=O)c2ccccc2)cc1 | 2.86
CCCOP(=O)(OCCC)Oc1ccc(SC)cc1 | 3.67
O=C(O)CCCc1ccccc1 | 2.42
COc1ccc(N)cc1 | 0.95
C=C1C(=O)OC2CC(C)C3C=CC(=O)C3(C)C(OC(=O)CC(=O)OC3C4C(=C)C(=O)OC4CC(C)C4C=CC(=O)C43C)C12 (stereo not drawn) | 1.33
Nc1nc(N)nc(-c2ccccc2I)n1 | 1.41
O=[N+]([O-])c1ccc(C=NO)o1 | 0.3
O=C(COc1ccccc1)Nc1ccccc1 | 2.73

Compound | logP
CCC1(CC)C(=O)NC(=O)N(C(C)C)C1=O | 2.36
COc1cc(NS(=O)(=O)c2ccc(N)cc2)nc(C)n1 | 0.61
Nc1ccc2ncccc2c1 | 1.28
CCc1cccc(C)c1N(C(=O)CCl)C(C)COC (stereo not drawn) | 3.13
COC1CC(OC2CCC3(C)C(CCC4C3CCC3(C)C(C5=CC(=O)OC5)C(OC(C)=O)CC43O)C2)OC(C)C1OC(C)=O (stereo not drawn) | 2.95
C=CCNCC | 0.81
O=C(O)Cc1cccc(Br)c1 | 2.37
C=CC(=O)c1ccccc1 | 1.88
CNC(=O)Oc1cccc2c1OC(C)(C)O2 | 1.7
CCCCC1CC(C(=O)NC(C(C)O)C2OC(SC)C(O)C(O)C2O)N(C)C1 (stereo not drawn) | 0.56
COc1cc2c(c(OC)c1OC)-c1ccc(=O)c(OC)cc1C(NC(C)=O)CC2 (stereo not drawn) | 1
CC(=O)OC[C@H]1O[C@@H](n2ncc(=O)[nH]c2=O)[C@H](OC(C)=O)[C@@H]1OC(C)=O | -0.2
CC(C)c1cc(Oc2ccccc2)cc(C(C)C)c1NC(=S)NC(C)(C)C | 6
COC(=O)c1cccnc1 | 0.83
CC(C)(C)c1ccc([N+](=O)[O-])cc1 | 3.89
COP(=O)(OC)OC(Br)C(Cl)(Cl)Br (stereo not drawn) | 1.38
c1ccc2cc3ccccc3cc2c1 | 4.45
NNC(=O)c1ccc(I)cc1 | 1.55
CCOP(=S)(OCC)Oc1ccc([N+](=O)[O-])cc1 | 3.83
CCCOc1ccc(O)cc1 | 2.33
NS(=O)(=O)c1cccc2cccnc12 | 0.42
Clc1cc(Cl)c(-c2ccccc2)c(Cl)c1 | 5.47
O=C1C=CC(=O)N1c1ccccc1 | 1.09
CCCC(=O)OCC(=O)C1(O)C(C)CC2C3CCC4=CC(=O)C=CC4(C)C3(F)C(O)CC21C (stereo not drawn) | 3.55

Compound | logP
CN(O)N=Nc1ccc(C(N)=O)cc1 | -0.22
CC(=O)c1ccco1 | 0.52
CC(=O)c1ccnc2cc(Cl)ccc12 | 2.62
CC(=O)Nc1cccc2nccnc12 | 1.06
O=C[C@H](O)[C@@H](O)[C@H](O)[C@H](O)C(=O)O | -2.57
CC1CCCC(C)N1 (stereo not drawn) | 1.53
O=C(O)Cc1ccccc1Nc1cc(Cl)ccc1Cl | 4.94
O=C(NO)Nc1ccccc1 | 0.41
Nc1cc([N+](=O)[O-])ccc1C(=O)O | 1.91
O=C(O)C(c1ccccc1)n1cccc1 (stereo not drawn) | 1.57
Nc1ccccc1S | 1.43
NNC(=O)c1cccc(O)c1 | -0.08
CNC(=O)OC | -0.06
CCCCOCc1cccc(NC(=O)OCCN2CCCCC2)c1 | 3.73
OCc1cccs1 | 0.87
CCC(C)C(=O)Nc1ccccc1 (stereo not drawn) | 2.56
CC(C)Oc1ccc(CC#N)cc1 | 2.53
Clc1ccccn1 | 1.22
CCCC(O)CCC | 2.22
Nc1cccc(Cl)c1 | 1.88
CCOC(=O)CC(=O)c1ccccc1 | 1.87
CN(C)C(N(C)C)=S(I)c1ccc(Cl)cc1 (stereo not drawn) | -0.2
COc1cc(SC)c(OC)cc1CCN | 1.81
CC(=O)Nc1ccc(C=O)cc1 | 1.25

Compound | logP
CNC(=O)Oc1cc(C)ccc1C(C)(C)C | 3.14
CCC(C)OC(=O)C(C(=O)OC(C)CC)=C1SCCS1 (stereo not drawn) | 4.53
NC(=O)CCCc1ccncc1 | -0.09
CCO[Si](OCC)(OCC)c1ccccc1 | 2.99
O=C1CN=C(c2ccccc2)c2cc([N+](=O)[O-])ccc2N1 | 2.25
C=CCOc1noc2c1CNCC2 | 0.56
FC(F)(F)Cl | 1.65
C/C=C/C=C/C(=O)O | 1.33
CN(C)C(=O)OCc1ccc(OC(=O)N(C)C)cc1 | 1.59
CCCC1(c2ccncc2)CCC(=O)NC1=O (stereo not drawn) | 1.13
Cc1cc2c(cc1S(N)(=O)=O)S(=O)(=O)NCN2 | -0.22
Nc1ccccc1F | 1.26
COc1ccc(C(=O)OCCN(C)C)cc1 | 2.21
CC(=O)c1ccsc1 | 1.24
CCO[Si](C)(C)OCC | 0.61
Cc1c(O)c(=O)ccn1CCN | -1.55
NS(=O)(=O)c1cccc([N+](=O)[O-])c1 | 0.55
c1ccc(-n2cccn2)cc1 | 2.2
CS(=O)(=O)CCC(N)C(=O)O (stereo not drawn) | -3.1
NC(=O)c1cccc(O)c1 | 0.39
O=C(O)c1ccc([N+](=O)[O-])cc1 | 1.89
CN(C)C(=O)Nc1ccc(Cl)cc1 | 1.94
Cc1cc(N)ncn1 | 0.19
O=CNc1ccccc1 | 1.15

Compound | logP
CC(C)(C)N(CC(O)COc1ccccc1)CC(O)COc1ccccc1 (stereo not drawn) | 3.99
Nc1nc(N)c2nc(-c3ccccc3)c(N)nc2n1 | 0.98
COc1cc(S(=O)(=O)CCN(C)Cc2ccccc2)cc(OC)c1OC | 2.18
CC(=O)N(c1ccccc1)c1ccccc1 | 2.02
C=CCc1ccccc1OCC(O)CNC(C)C (stereo not drawn) | 3.1
CCCCCCCCOC(N)=O | 2.84
N#Cc1cccc(F)c1 | 1.47
CCCCCCOc1ccccc1NC(=O)OCCN1CCCCC1 | 5.29
CCCCCOCc1cccc(NC(=O)OCCN2CCCCC2)c1 | 4.2
CN(C)N=Nc1ccc(CCCC(=O)O)cc1 | 2.62
O=C(O)Cc1cccc(C(=O)O)c1 | 1.14
CCCCOP(=O)(OCCCC)Oc1ccccc1 | 4.27
O=C(O)c1c2ccccc2cc2ccccc12 | 3.85
NNC(=O)c1ccnc(N)c1 | -0.98
CCCC(C)(COC(N)=O)COC(N)=O | 0.7
NNS(=O)(=O)c1ccccc1 | -0.14
C#CCN(CC#C)CC#C | 1.27
CCOCC(O)Cn1cnc([N+](=O)[O-])n1 (stereo not drawn) | -0.07
COC(=O)Nc1cccc(Cl)c1 | 2.58
